“Also recorded” adds a separate entry of the source. Square brackets hold non-standard residues; d marks the D form. Ends that are not written are not given here. NMeV = CN[C@H](C(=O)O)C(C)C
What was measured:
[1] = test system: sera from Map infected animals (anti-Map antibodies); type: binding, bovines and goats
[2] = test system: IgA, IgM, IgG1 or IgG2 antibodies in sera of Map infected animals; type: binding, bovines
[3] = test system: sera from M. avium subsp. avium-experimentally infected mouse; assay: ELISA with sera from Mav experimentally infected mouse; type: binding; settings: FIG. 4B
[4] = test system: sera from M. bovis infected bovine; type: binding; settings: read at 414 nm
[5] = test system: sera from Mav- or Mai-infected human patients; type: binding

In the case of “AcNH-DPhe-NMeVal-Ile-Phe-Ala (Ac-[dF][NMeV]IFA) [compound 10]”, the “specific reaction with Map specific anti serum” value (“specific reaction” below) [1] is reported as “react specifically”.
“DPhe-NMeVal-Ile-Phe-Ala-OMe ([dF][NMeV]IFA-OMe) [compound 4]” was tested, and the “antigenic response (ranking among analogues)” value [1] was “best antigenic response”, the “recognition by sera of Map-infected animals, compared with L5P” value (“recognition by sera … compared with L5P” for short) [1] was “recognized at least as efficiently” and the “sensitivity for detection of Map-specific antibodies compared to L5P (1)” value [1] was “higher sensitivity”. For the same compound, the “specific reaction” value [1] was “react specifically”.
CCCCCCCCCCCCCCCCCCCC(=O)O [lipid moiety, eicosanoic acid, reference compound] was tested, and the “recognition by sera … compared with L5P” value [1] was “poorly recognized”.
In the case of “LipidC20-DPhe-NMeVal-Ile-Phe-Ala-OMe [L5P]”, the “anti-L5P IgA in sera” value [2] is reported as “no IgA was detected”, the “anti-L5P IgG1 in sera” value [2] is reported as “present” and the “anti-L5P IgG2 in sera” value [2] is reported as “present”. The “anti-L5P IgM in sera” value [2] was “present”, the reactivity with sera [3] was “none was reacting” and the “O.D. in ELISA” value [4] was “below 0.2”. The “OD in ELISA” value [1] was “above 1,5”, the “specificity compared with PPD” value [1] was “by far more specific than the PPD” and the “O.D. in ELISA” value [5] was “below 0.2”.
For “AcNH-DPhe-Val-Ile-Phe-Ala-OMe (Ac-[dF]VIFA-OMe; SMILES CC[C@H](C)[C@H](NC(=O)[C@@H](NC(=O)[C@@H](Cc1ccccc1)NC(C)=O)C(C)C)C(=O)N[C@@H](Cc1ccccc1)C(=O)N[C@@H](C)C(=O)OC) [compound 8]”, the “specific reaction” value [1] was “react specifically”.
For “AcNH-DPhe-NMeVal-Ile-Phe-Ala-OMe (Ac-[dF][NMeV]IFA-OMe; SMILES CC[C@H](C)[C@H](NC(=O)[C@H](C(C)C)N(C)C(=O)[C@@H](Cc1ccccc1)NC(C)=O)C(=O)N[C@@H](Cc1ccccc1)C(=O)N[C@@H](C)C(=O)OC) [Ac5P]”, the “recognition by sera … compared with L5P” value [1] was “recognized as efficiently as the L5P; also recorded: In some cases, the pentapeptide was even better recognized than the whole L5P”.
In the case of “LipidC20-DPhe-NMeVal-Ile-Phe-Ala [compound 9]”, the “specific reaction” value [1] is reported as “react specifically”.

From patent publication US8883173B2 (priority 2007, dated 2014)
